Measured values reported in paper PMC6445240, “Design, synthesis and evaluation of ^18F-labeled cationic carbonic anhydrase IX inhibitors for PET imaging” (Journal of Enzyme Inhibition and Medicinal Chemistry, 2017).
Where a name gives a salt, the structure may show the parent alone.

Assays:
CA-I = CA-I (Homo sapiens, UniProt P00915); experiment: stopped-flow CO2 hydration assay, CA-I; type: biochemical; settings: errors 5–10% from three assays, read-out: Inhibition constant (Ki) CA-I
CA-II = CA-II (Homo sapiens, UniProt P00918); experiment: stopped-flow CO2 hydration assay, CA-II; type: biochemical; settings: errors 5–10% from three assays, read-out: Inhibition constant (Ki) CA-II
CA-IV = CA-IV (Homo sapiens, UniProt P22748); experiment: stopped-flow CO2 hydration assay, CA-IV; type: biochemical; settings: errors 5–10% from three assays, read-out: Inhibition constant (Ki) CA-IV
Sequence of CA-IV (P22748 19-312): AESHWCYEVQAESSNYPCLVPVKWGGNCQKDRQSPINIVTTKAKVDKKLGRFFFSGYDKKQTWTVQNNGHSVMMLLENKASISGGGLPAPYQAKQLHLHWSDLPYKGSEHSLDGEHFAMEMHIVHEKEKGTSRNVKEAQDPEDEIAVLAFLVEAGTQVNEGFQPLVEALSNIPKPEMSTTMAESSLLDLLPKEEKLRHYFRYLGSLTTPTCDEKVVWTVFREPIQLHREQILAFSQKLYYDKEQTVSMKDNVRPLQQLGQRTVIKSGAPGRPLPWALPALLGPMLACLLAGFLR

CA-IX = CA-IX (Homo sapiens, UniProt Q16790); experiment: stopped-flow CO2 hydration assay, CA-IX; type: biochemical; settings: errors 5–10% from three assays, read-out: Inhibition constant (Ki) CA-IX

Sequence of CA-I (P00915 whole entry): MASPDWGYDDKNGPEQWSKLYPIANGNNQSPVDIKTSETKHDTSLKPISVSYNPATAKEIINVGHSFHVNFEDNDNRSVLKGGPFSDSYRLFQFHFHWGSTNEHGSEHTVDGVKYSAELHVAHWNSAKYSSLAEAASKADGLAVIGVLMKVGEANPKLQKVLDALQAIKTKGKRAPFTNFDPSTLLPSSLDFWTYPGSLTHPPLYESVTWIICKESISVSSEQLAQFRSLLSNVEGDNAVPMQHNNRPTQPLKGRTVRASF

melting point [°C]	Ki (CA-I) [nM]	Ki (CA-II) [nM]	Ki (CA-IV) [µM]	Ki (CA-IX) [nM]	SMILES
228	–	–	–	–	C[N+](C)(Cc1ccc(F)cc1)Cc1ccc(C(=O)NCc2ccc(S(N)(=O)=O)cc2)cc1 (as salt: bromide) [Compound 3, N-4-[[[4-(aminosulfonyl)benzyl]amino]carbonyl] benzyl-N,N-dimethyl-4-fluorobenzylammonium bromide]
–	520	70	9.54	220	C[N+](C)(Cc1ccc(F)cc1)Cc1ccc(C(=O)NCCc2ccc(S(N)(=O)=O)cc2)cc1 [Compound 2, N-4-[[[2-[4-(aminosulfonyl)phenyl]ethyl]amino]carbonyl]benzyl-N,N-dimethyl-4-fluorobenzylammonium bromide]
–	780	480	3.63	960	C[N+](C)(Cc1ccc(F)cc1)Cc1ccc(C(=O)NCc2ccc(S(N)(=O)=O)cc2)cc1 [Compound 3, N-4-[[[4-(aminosulfonyl)benzyl]amino]carbonyl] benzyl-N,N-dimethyl-4-fluorobenzylammonium bromide]

Second part, the compound before the results:

SMILES	melting point [°C]	Ki (CA-I) [nM]	Ki (CA-II) [nM]	Ki (CA-IV) [µM]	Ki (CA-IX) [nM]
C[N+](C)(Cc1ccc(F)cc1)Cc1ccc(C(=O)NCc2cccc(S(N)(=O)=O)c2)cc1 (as salt: bromide) [Compound 1, N-4-[[[3-(aminosulfonyl)benzyl]amino]carbonyl] benzyl-N,N-dimethyl-4-fluorobenzylammonium bromide]	226	–	–	–	–
C[N+](C)(Cc1ccc(F)cc1)Cc1ccc(C(=O)NCCc2ccc(S(N)(=O)=O)cc2)cc1 (as salt: bromide) [Compound 2, N-4-[[[2-[4-(aminosulfonyl)phenyl]ethyl]amino]carbonyl]benzyl-N,N-dimethyl-4-fluorobenzylammonium bromide]	215	–	–	–	–
C[N+](C)(Cc1ccc(F)cc1)Cc1ccc(C(=O)NCc2cccc(S(N)(=O)=O)c2)cc1 [Compound 1, N-4-[[[3-(aminosulfonyl)benzyl]amino]carbonyl] benzyl-N,N-dimethyl-4-fluorobenzylammonium bromide]	–	890	720	> 50	440
